Experimental data reported in publication PMC6105804, “In Vitro and In Vivo Evaluation of APX001A/APX001 and Other Gwt1 Inhibitors against Cryptococcus” (Antimicrobial Agents and Chemotherapy, 2018).
Converted amounts (≈) assume the structure as drawn. Like-named read-outs stand apart in the source and are kept apart here.

Tests used:
C. neoformans [1] = system: C. neoformans; set-up: method as in PMID 23740727; conditions: 46 strains of C. neoformans, global study; cited from earlier work
C. neoformans [2] = test: Broth microdilution susceptibility testing (CLSI M27-A3); assay type: cell-based, Cryptococcus neoformans; conditions: for MIC: Cryptococcus neoformans
Text: (§1) C. neoformans strains H99, DUMC 118.00, and DUMC 158.03 and C. gattii strains R272 and RSA-MW-3515 were obtained from Duke University. C. albicans 90028, A. fumigatus MYA3626, C. neoformans 14116, C. neoformans 76484, and the pathogenic Cryptococcus reference strains panel (ATCC MP-11) were obtained from the American Type Culture Collection (ATCC; Manassas, VA, USA). The ATCC MP-11 panel consists of strains representing eight molecular types and three subtypes of C. neoformans and C. gattii.
(§2) To establish the antimicrobial activity of the APX001A analogs, broth microdilution susceptibility testing was performed according to Clinical and Laboratory Standards Institute (CLSI) guidelines M27-A3 ([47]) for yeasts and M38-A2 for molds ([48]). APX001A and analogs were first diluted in DMSO to obtain intermediate dilutions. These were further diluted in microtiter plates to obtain a final concentration of 2 to 0.002 μg/ml. One microliter of DMSO was added to the no-drug control wells. The solutions were mixed on a plate shaker for 10 min, and the plates were incubated at 35°C for 40 to 48 h (C. albicans, A. fumigatus) and 72 h (C. neoformans). The minimum concentration that led to a 50% reduction in fungal growth compared to that for the control (determined with the aid of a reading mirror) was determined as the MIC for C. albicans and C. neoformans. The minimum concentration that led to the shortening of hyphae compared to the hyphal growth in DMSO control wells was determined as the minimum effective concentration (MEC) for A. fumigatus (as read for the echinocandins). The use of the MIC and MEC endpoints for APX001A (formerly E1210) against yeasts and molds, respectively, has been described previously ([19][–][21]). For the cryptococcal synergy studies, APX001A and APX2020 MIC values were read at 50% inhibition.

C. gattii = test: as above; assay type: cell-based; conditions: Cryptococcus gattii
Text: as §1, §2

C. albicans 90028 = test: as above; assay type: cell-based, Candida albicans; conditions: Candida albicans, 90028; read-out: MIC, C. albicans 90028
Text: as §1, §2

A. fumigatus MYA3626 = test: Broth microdilution susceptibility testing for molds (CLSI M38-A2); assay type: cell-based; conditions: Aspergillus fumigatus, MYA3626; read-out: MIC or MEC for A. fumigatus MYA3626
Text: as §1, §2

[3] = system: FLC-susceptible and FLC-nonsusceptible/resistant strains of C. neoformans and C. gattii; test: Broth microdilution, summary over the 18-strain Cryptococcus collection; assay type: cell-based, Cryptococcus neoformans and Cryptococcus gattii; conditions: 18 strains of C. neoformans and C. gattii
Method: as §2, with “The minimum concentration that led to the shortening of hyphae compared to the hyphal growth in DMSO control wells was determined as the minimum effective concentration (MEC) for A. fumigatus (as read for the echinocandins).” left out

C. neoformans H99 = test: Microtiter checkerboard synergy with FLC; assay type: cell-based, Cryptococcus neoformans; conditions: in combination with FLC, MIC read at 50% inhibition, synergy FICI < 0.5
Method: An important consideration for developing a new treatment for CM is the potential for inclusion in combination therapy. We evaluated the synergy of APX001A and APX2020 in combination with FLC using standard microtiter dilution techniques ([33]). […] Importantly, no antagonism was observed.
as §2, with “The use of the MIC and MEC endpoints for APX001A (formerly E1210) against yeasts and molds, respectively, has been described previously ([19][–][21]). For the cryptococcal synergy studies, APX001A and APX2020 MIC values were read at 50% inhibition.” left out

[4] = Single-dose mouse pharmacokinetics of prodrugs with or without ABT; assay type: in vivo; conditions: for AUC: male, CD-1, mouse, plasma, 26 mg/kg
Method: The area under the curve (AUC) was calculated from time zero to the time of the last measurable concentration. The active metabolite concentrations in plasma (APX001A, APX2039, APX2020, and APX2041) were determined by liquid chromatography-tandem mass spectrometry. PK parameters were determined using Phoenix WinNonlin (v7.0) software and a noncompartmental model.

SMILES: C[C@@H](c1nc(-c2ccc(C#N)cc2)cs1)[C@](O)(Cn1cncn1)c1cc(F)ccc1F [isavuconazole]
- MIC90 (C. neoformans [1]): 0.06 µg/mL (≈ 0.137 µM)

SMILES: Nc1ncccc1-c1cc(Cc2ccc(OCc3ccccc3)cc2)no1 [APX2020]
- MIC (C. neoformans [2]; 72 h, Table 1, 50% growth inhibition for FLC, caspofungin and APX compounds, 100% for AMB, 72 h, read-out: MIC, C. neoformans H99): 0.031 µg/mL
- MIC (C. neoformans [2]; C. neoformans isolate 14116, read-out: MIC): 0.031 µg/mL
- MIC (C. neoformans [2]; C. neoformans isolate 76484, read-out: MIC): 0.063 µg/mL
- MIC (C. neoformans [2]; C. neoformans isolate DUMC 118.00 (FLC resistant), read-out: MIC): 0.063 µg/mL
- MIC (C. neoformans [2]; C. neoformans isolate DUMC 158.03 (FLC resistant), read-out: MIC): 0.25 µg/mL
- MIC (C. neoformans [2]; C. neoformans isolate MYA-4564, read-out: MIC): 0.063 µg/mL
- MIC (C. neoformans [2]; C. neoformans isolate MYA-4565, read-out: MIC): 0.25 µg/mL
- MIC (C. neoformans [2]; C. neoformans isolate MYA-4566, read-out: MIC): 0.125 µg/mL
- MIC (C. neoformans [2]; C. neoformans isolate MYA-4567, read-out: MIC): 0.063 µg/mL
- MIC (C. neoformans [2]; Table 2, C. neoformans isolate H99, read-out: MIC): 0.031 µg/mL
- fold improved anti-C. neoformans H99 activity vs APX001A (C. neoformans [2]; from MIC values of Table 1): 8 fold
- MIC (C. gattii; C. gattii isolate MYA-4093, read-out: MIC): 0.125 µg/mL
- MIC (C. gattii; C. gattii isolate MYA-4094, read-out: MIC): 0.25 µg/mL
- MIC (C. gattii; C. gattii isolate MYA-4560 (first listing, r17), read-out: MIC): 0.063 µg/mL
- MIC (C. gattii; C. gattii isolate MYA-4560 (second listing, r21), read-out: MIC): 0.063 µg/mL
- MIC (C. gattii; C. gattii isolate MYA-4561, read-out: MIC): 0.125 µg/mL
- MIC (C. gattii; C. gattii isolate MYA-4562, read-out: MIC): 0.125 µg/mL
- MIC (C. gattii; C. gattii isolate MYA-4563, read-out: MIC): 0.125 µg/mL
- MIC (C. gattii; C. gattii isolate MYA-4877, read-out: MIC): 0.063 µg/mL
- MIC (C. gattii; C. gattii isolate RSA-MW-3615 (FLC resistant), read-out: MIC): 0.031 µg/mL
- MIC (C. gattii; Table 1, 50% growth inhibition for FLC, caspofungin and APX compounds, 100% for AMB, read-out: MIC, C. gattii WM276): 0.031 µg/mL
- MIC (C. albicans 90028): 0.016 µg/mL
- MIC (A. fumigatus MYA3626): 0.031 µg/mL
- MIC90 [3]: 0.25 µg/mL
- MIC ([3]; read-out: Geometric mean MIC): 0.085 µg/mL
- fractional inhibitory concentration index (FICI) (C. neoformans H99): 0.37
- Ratio of AUC with ABT/AUC without ABT, i.p. dosing ([4]; 26 mg/kg prodrug): 8.3
- Ratio of AUC with ABT/AUC without ABT, p.o. dosing ([4]; 26 mg/kg prodrug): 9.3
- AUC ([4]; intraperitoneal, AUC of analyte after 26 mg/kg prodrug, 100 mg/kg ABT orally 2 h before, read-out: Avg AUC resulting from 26-mg/kg dose, i.p. dosing + ABT): 35600 ± 28200 ng·h/mL
- AUC ([4]; ip, AUC of analyte after 26 mg/kg of the corresponding prodrug, male CD-1 mice, no ABT, read-out: Avg AUC resulting from 26-mg/kg dose, i.p. dosing): 4310 ± 960 ng·h/mL
- AUC ([4]; po, AUC of analyte after 26 mg/kg prodrug, 100 mg/kg ABT orally 2 h before, read-out: Avg AUC resulting from 26-mg/kg dose, p.o. dosing + ABT): 41900 ± 6410 ng·h/mL
- AUC ([4]; po, AUC of analyte in plasma after 26 mg/kg of the corresponding prodrug, male CD-1 mice, no ABT, read-out: Avg AUC resulting from 26-mg/kg dose, p.o. dosing): 4490 ± 2320 ng·h/mL
